Source: patent US12128040B2, “Selective estrogen receptor degraders” (Eli Lilly and Company, priority 2018, dated 2024)

Columns and labels:
[1] = Rat oral bioavailability assay; format: in vivo; settings: plasma, Sprague-Dawley rats, IV 1 mg/kg, PO 10 mg/kg, read-out: oral bioavailability (% F)
Method: Administer the test compound to Sprague-Dawley rats IV at 1 mg/kg (using vehicles of either: 20% CAPTISOL© in 25 mM sodium phosphate buffer, pH2 quantum satis; or 25% DMA, 15% EtOH, 10% propylene glycol, 25% 2-pyrrolidone, and 25% purified water) and PO at 10 mg/kg (using a vehicle of 1% hydroxyethyl cellulose, 0.25% polysorbate 80, 0.05% Antifoam 1510-US, and purified water quantum satis). Collect serial blood samples at 0.08, 0.25, 0.5, 1, 2, 4, 8, and 12 hours post dose for IV bolus and at 0.25, 0.5, 1, 2, 4, 8, and 12 hours post dose after oral administration. After treatment with an EDTA […], obtain plasma by centrifugation and stored at −70° C. until analysis by LC-MS/MS. Determine the test compound concentration in plasma and upload into the Watson LIMS™ system where noncompartmental analysis is used to calculate Area Under the Curve (AUC) for both IV and PO arms. Calculate oral bioavailability (% F) via the following equation, % F=(AUCPO×DoseIV)/(AUCIV×DosePO)×100.

[2] = target: T1, ERα (Y537S mutant) (Homo sapiens, UniProt P03372, Y537S); assay: ERα (Y537S mutant) competition binding assay; settings: 3H-estradiol competition, n=3
T1 sequence (P03372 1-595 Y537S): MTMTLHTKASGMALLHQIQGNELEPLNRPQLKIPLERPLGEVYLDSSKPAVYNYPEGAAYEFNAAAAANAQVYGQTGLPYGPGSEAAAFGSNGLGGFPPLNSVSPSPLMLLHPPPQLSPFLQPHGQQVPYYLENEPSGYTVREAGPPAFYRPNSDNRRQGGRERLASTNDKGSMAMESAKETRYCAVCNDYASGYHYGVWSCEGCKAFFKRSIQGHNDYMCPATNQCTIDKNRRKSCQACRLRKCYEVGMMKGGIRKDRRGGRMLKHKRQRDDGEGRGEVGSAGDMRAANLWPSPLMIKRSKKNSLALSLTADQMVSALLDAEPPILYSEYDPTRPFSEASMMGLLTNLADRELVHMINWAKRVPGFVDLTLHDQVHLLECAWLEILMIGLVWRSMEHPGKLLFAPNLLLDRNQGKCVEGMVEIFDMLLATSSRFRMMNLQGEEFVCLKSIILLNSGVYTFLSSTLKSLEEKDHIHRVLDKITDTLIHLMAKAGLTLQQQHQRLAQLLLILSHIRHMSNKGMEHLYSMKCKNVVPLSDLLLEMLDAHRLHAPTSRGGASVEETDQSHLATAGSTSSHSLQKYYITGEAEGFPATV
Method: The purpose of the following ER competition binding assays is to determine the binding affinity of a test compound against ERα (wild type) and ERα (Y537S mutant) See Fanning et al., “Estrogen receptor alpha somatic mutations Y537S and D538G confer breast cancer endocrine resistance by stabilizing the activating function-2 binding conformation,” eLife 2016; 5:e12792.
Run the competition binding assay in a buffer containing 50 mM HEPES, pH 7.5, 1.5 mM EDTA, 150 mM NaCl, 10% glycerol, 1 mg/mL ovalbumin, and 5 mM DTT, using 0.025 µCi per well ^3H-estradiol (118 Ci/mmol, 1 mCi/mL), 7.2 ng/well ERα (wild type), or 7.2 ng/well ERα (Y537S mutant). Add the test compound at 10 different concentrations ranging from 10,000 nM to 0.5 nM, and determine nonspecific binding in the presence of 1 μM of […]. Incubate the binding reaction (140 μL) for 4 hours at room temperature, and then add cold dextran-charcoal buffer (70 μL) (containing per 50 mL of assay buffer, 0.75 g of charcoal and 0.25 g of dextran) to each reaction. Mix the plates for 8 minutes on an orbital shaker at 4° C. and then centrifuge at 3000 rpm at 4° C. for 10 minutes. […] After an incubation of 2.5 hours, read the plates in a Wallac Microbeta counter. […]

**Q.** What does the source list for `O=C(c1ccc(OCCN2CC(CF)C2)cc1)c1c(-c2ccc(C(F)(F)F)cc2F)cnc2cc(O)ccc12` [Example 1, (4-{2-[3-(Fluoromethyl)azetidin-1-yl]ethoxy}phenyl){3-[2-fluoro-4-(trifluoromethyl)phenyl]-7-hydroxyquinolin-4-yl}methanone]?
**A.** bioavailability [1]: 27%; Ki [2]: 21.2 ± 2.12 nM
